According to ChEMBL document CHEMBL1821565, “I. Novel HCV NS5B polymerase inhibitors: discovery of indole 2-carboxylic acids with C3-heterocycles” (Bioorg Med Chem Lett, 2011):

What was measured:
[1] = tested on: Hepatitis C virus; test: Antiviral activity against HCV subtype 1b Con1 reduction in replicon RNA level using RT-PCR by cell based replicon assay; type: functional, organism-based, Hepacivirus hominis
[2] = Inhibition of HCV NS5B after 150 mins by [33P]-CTP incorporation assay; design: species or system Hepacivirus hominis
[3] = Hepatitis C virus, Con1, read-out: EC50

EC50 [1, 3] | IC50 [2] | EC50 [1] | Compound
> 25 µM | 1.1 µM |  | O=C(O)c1c(-c2ccc(F)cc2F)c2cc(Cl)ccc2n1Cc1cccc(Cl)c1
> 25 µM | 0.3 µM |  | O=C(O)c1c(-c2cccnc2F)c2cc(Cl)ccc2n1Cc1ccc(F)cc1F
19 µM | 0.15 µM |  | O=C(O)c1c(-n2ccccc2=O)c2cc(Cl)ccc2n1Cc1ccccc1F
10 µM | 0.035 µM |  | O=C(O)c1c(-c2ccc[nH]c2=O)c2cc(Cl)ccc2n1Cc1ccc(F)cc1F
10 µM | 0.047 µM |  | O=C(O)c1c(-c2c[nH]c(=O)[nH]c2=O)c2cc(Cl)ccc2n1Cc1ccc(F)cc1F
4.8 µM | 0.053 µM |  | Nc1cc(Cn2c(C(=O)O)c(-c3ccc[nH]c3=O)c3cc(Cl)ccc32)ccn1
2 µM | 0.031 µM |  | Nc1cc(Cn2c(C(=O)O)c(-c3c[nH]c(=O)[nH]c3=O)c3cc(Cl)ccc32)ccn1
 | > 20 µM | Not Active | Nc1cc(Cn2c(C(=O)O)c(N3CCNS3(=O)=O)c3cc(Cl)ccc32)ccn1
 | > 20 µM | Not Active | Nc1cc(Cn2c(C(=O)O)c(N3CCCNS3(=O)=O)c3cc(Cl)ccc32)ccn1
7.6 µM | 0.043 µM |  | O=C(O)c1c(-c2ccc[nH]c2=O)c2cc(Br)ccc2n1Cc1ccc(F)cc1F
11 µM | 0.043 µM |  | COc1ccc2c(c1)c(-c1ccc[nH]c1=O)c(C(=O)O)n2Cc1ccc(F)cc1F
20 µM | 0.12 µM |  | CCOc1ccc2c(c1)c(-c1ccc[nH]c1=O)c(C(=O)O)n2Cc1ccc(F)cc1F
> 50 µM | 0.56 µM |  | O=C(O)c1c(-c2ccc[nH]c2=O)c2cc(C3CC3)ccc2n1Cc1ccc(F)cc1F
 | 0.046 µM |  | Cc1ccc2c(c1)c(-c1ccc[nH]c1=O)c(C(=O)O)n2Cc1ccc(F)cc1F
4.8 µM | 0.025 µM |  | O=C(O)c1c(-c2ccc[nH]c2=O)c2cc(C(F)(F)F)ccc2n1Cc1ccc(F)cc1F
> 10 µM | 0.35 µM |  | NC(=O)Nc1c(C(=O)O)n(Cc2cc(F)ccc2F)c2ccc(C(F)(F)F)cc12
> 10 µM | 0.27 µM |  | O=C(O)c1c(-n2c(=O)[nH]c3nccnc3c2=O)c2cc(C(F)(F)F)ccc2n1Cc1cc(F)ccc1F
12 µM | 0.059 µM |  | O=C(O)c1c(-n2c(=O)[nH]c3cscc3c2=O)c2cc(C(F)(F)F)ccc2n1Cc1ccc(F)cc1F
1.4 µM | 0.032 µM |  | Nc1cc(Cn2c(C(=O)O)c(-n3c(=O)[nH]c4cscc4c3=O)c3cc(C(F)(F)F)ccc32)ccn1
0.3 µM | 0.017 µM |  | Nc1cc(Cn2c(C(=O)O)c(-c3ccc[nH]c3=O)c3cc(C(F)(F)F)ccc32)ccn1
> 100 µM |  |  | O=C(O)c1c(-c2ccccc2F)c2cc(Cl)ccc2n1Cc1ccccc1
> 25 µM | 7.3 µM |  | O=C(O)c1[nH]c2ccc(Cl)cc2c1-c1ccccc1F
> 25 µM | 1.3 µM |  | Cn1c(C(=O)O)c(-c2ccccc2F)c2cc(Cl)ccc21

EC50 [1, 3] | IC50 [2] | EC50 [1] | Compound
> 25 µM | 8.1 µM |  | CC(=O)n1c(C(=O)O)c(-c2ccccc2F)c2cc(Cl)ccc21
> 25 µM | 7.8 µM |  | O=C(O)c1c(-c2ccccc2F)c2cc(Cl)ccc2n1C(=O)c1ccccc1
> 25 µM | 4.4 µM |  | O=C(O)c1c(-c2ccccc2F)c2cc(Cl)ccc2n1Cc1ccc2ccccc2c1
> 25 µM | 2.5 µM |  | Cc1cccc(Cn2c(C(=O)O)c(-c3ccccc3F)c3cc(Cl)ccc32)c1
> 25 µM | > 44 µM |  | O=C(O)c1c(-c2ccccc2F)c2cc(Cl)ccc2n1Cc1cccc(C(F)(F)F)c1
> 25 µM | 1.8 µM |  | O=C(O)c1c(-c2ccccc2F)c2cc(Cl)ccc2n1Cc1cccc(OC(F)(F)F)c1
> 25 µM | 0.3 µM |  | O=C(O)c1c(-c2ccccc2F)c2cc(Cl)ccc2n1Cc1cc(F)ccc1F
> 25 µM | 0.6 µM |  | Nc1ccccc1Cn1c(C(=O)O)c(-c2ccccc2F)c2cc(Cl)ccc21
> 25 µM | 0.2 µM |  | Nc1cccc(Cn2c(C(=O)O)c(-c3ccccc3F)c3cc(Cl)ccc32)c1
> 25 µM | 1.3 µM |  | Cc1ccc(Cn2c(C(=O)O)c(-c3ccccc3F)c3cc(Cl)ccc32)cc1N
> 25 µM | 0.6 µM |  | CC(=O)Nc1cccc(Cn2c(C(=O)O)c(-c3ccccc3F)c3cc(Cl)ccc32)c1
> 25 µM | 0.7 µM |  | O=C(O)c1c(-c2ccccc2F)c2cc(Cl)ccc2n1Cc1cccc(NCc2ccccc2)c1
> 25 µM | 1.3 µM |  | O=C(O)c1c(-c2ccccc2F)c2cc(Cl)ccc2n1Cc1cccnc1
> 25 µM | 1.2 µM |  | O=C(O)c1c(-c2ccccc2F)c2cc(Cl)ccc2n1Cc1ccncc1
> 25 µM | 10 µM |  | COc1ccccc1-c1c(C(=O)O)n(Cc2ccccc2F)c2ccc(Cl)cc12
> 25 µM | 1.4 µM |  | O=C(O)c1c(-c2ccccc2O)c2cc(Cl)ccc2n1Cc1cc(F)ccc1F
> 25 µM | 4.2 µM |  | O=C(O)c1c(-c2ccccc2)c2cc(Cl)ccc2n1Cc1cccc(Cl)c1
> 25 µM | 33 µM |  | O=C(O)c1c(-c2cccc(Cl)c2)c2cc(Cl)ccc2n1Cc1cccc(Cl)c1
> 25 µM | 30 µM |  | N#Cc1cccc(-c2c(C(=O)O)n(Cc3cccc(Cl)c3)c3ccc(Cl)cc23)c1
> 25 µM | 29 µM |  | O=C(O)c1c(-c2ccc3c(c2)OCO3)c2cc(Cl)ccc2n1Cc1cccc(Cl)c1
> 25 µM | > 48 µM |  | O=C(O)c1c(-c2ccc(F)cc2)c2cc(Cl)ccc2n1Cc1cccc(Cl)c1
> 25 µM | > 46 µM |  | O=C(O)c1c(-c2ccc(F)c(F)c2)c2cc(Cl)ccc2n1Cc1cccc(Cl)c1

Compound | EC50 [1, 3] | IC50 [2] | EC50 [1]
O=C(O)c1cc2cc(Cl)ccc2n1Cc1ccccc1F | > 25 µM | 17 µM | 
